Measurements: PMC9114799, “In vitro Evaluation of Isoniazid Derivatives as Potential Agents Against Drug-Resistant Tuberculosis” (Frontiers in Pharmacology, 2022)
Converted amounts (≈) assume the structure as drawn. “And” between values parts separate entries of the source, which are not always exact repeats. Identical values can stand only once. Like-named read-outs stand apart in the source and are kept apart here. Marks after values point to notes of the source that are not given here.

How the values were obtained:
[1] = test system: HepG2 cells; test: HepG2 cell viability assay (MTT), 72 h; assay type: cell-based, human; details: for IC50: Homo sapiens, HepG2, 72 h incubation, MTT, 0.5% DMSO, read-out: IC50 against HepG2 cells
Experimental: HepG2 cells were plated on 384-well tissue culture treated polystyrene plates at 2000 cells in 25 μl of HepG2 maintenance medium per well. After an overnight incubation at 37°C, the cells were dosed with test compounds in dimethyl sulfoxide (DMSO) and controls over wide ranges of concentrations (Table 1) and incubated for 72 h at 37°C. DMSO was at 0.5% in the final solution. The aqueous solubility of the compounds limited the range of concentrations tested. Cell viability was measured using the Promega CellTiter 96 Non-Radioactive Cell Proliferation Assay (MTT) kit by adding the Dye Solution to each well and incubating for 3 h at 37°C. After incubation, the Solubilization Solution/Stop Mix was added to each well. Plates were incubated at 37°C for 1 h, mixed on a plate shaker for 10 min and then absorbance was read at 570 nm. Cell viability was determined by comparison against control cells in the presence of DMSO only and was measured in three independent replicates for each compound concentration. The IC50 was calculated with GraphPad Prism using a Sigmoidal Dose-response (variable slope) algorithm. Chlorpromazine, a drug with a well-known and characterized hepatotoxicity ([Frötschl et al., 2005]; [Gandhi et al., 2013]; [Morgan et al., 2019]), was used as the positive control.
To evaluate the in vitro toxicity of this series of INH derivatives, the viability of HepG2 cells, a human liver cancer cell line, was determined by the MTT tetrazolium reduction assay ([Riss et al., 2013]), a colorimetric assay to assess cell metabolic activity, and the IC50 value, i.e., the concentration for 50% reduction in cell viability, was obtained for each compound (Supplementary Figure S6). […] The hepatoxicity of INH is well described ([Girling, 1978]; [Wu and Cederbaum, 1996]; [Huang et al., 2003]; [Bhadauria et al., 2007]; [Singh et al., 2011]) and is much lower than that of chlorpromazine.

[2] = test system: HepG2; details: cited from earlier work
[3] = target: warfarin binding site of HSA (Sudlow's binding site I) (Homo sapiens, UniProt P02768); test: Competitive binding with warfarin (HSA Sudlow's binding site I)
Experimental: Warfarin stock solution was also prepared with DMSO.
The interaction of INH and its derivatives with HSA was further examined regarding their putative binding site.
Using the dampening in the fluorescence intensity of warfarin it is possible to retrieve the HSA-compound dissociation constant for the binding site of warfarin (K dc) - Table 3.
From this variation it is possible to retrieve C50, the concentration of compound that displaces half of […]
This concentration is given by the fluorescence intensity corresponding to […]
the intensity of warfarin in water (buffer), which was obtained for warfarin in PBS in the absence of HSA. The C50 value was retrieved for each replicate and the average was used to calculate the Kdc of […]
(1 picture or pasted object on this page, not shown here)

[4] = test system: M. tuberculosis H37Rv ATCC27294 (wt); details: ref Martins et al., cited from earlier work
[5] = octanol-water, cited from earlier work
[6] = target: T1, human serum albumin (HSA) (Homo sapiens, UniProt P02768); details: for 10-3 K’b / M-1, HSA binding constant from fluorescence intensity variation not accounted for by the decrease in lifetime: head prints 10-3 K’b / M-1, reverse of the dissociation constant
Experimental: (§1) INH and INH derivatives stock solutions were prepared in DMSO. From the stock solutions, appropriate dilutions were prepared so that each compound was added to HSA in PBS at different concentrations ensuring that DMSO was at a fixed concentration of 5% (v/v) in the final solution. […] Three or more independent replicates were prepared and analyzed for each system.
Quartz Suprasil® cuvettes with 1 × 0.4 cm path length were used to gather the spectroscopic data.
The bandwidth was 4 nm in both excitation and emission paths.
Whenever the decrease in τ¯ is smaller than the decrease in the steady-state fluorescence intensity, there are multiple quenching mechanisms responsible for a decrease in fluorescence quantum yield, one affecting the amplitude-weighted mean fluorescence lifetime and the fluorescence intensity alike, and another affecting only the fluorescence intensity (a static quenching mechanism). Therefore, for each data point, the decrease in fluorescence intensity that was not due to a decrease in τ¯ was calculated. These values were used to obtain yet another dissociation constant that corresponds to the binding process affecting only the steady-state fluorescence intensity, also shown in Table 3 (K’d). […] This is a consequence of the much larger relative decrease in fluorescence intensity when compared with the decrease in fluorescence lifetime.
For a static quenching mechanism, K represents the association constant for the formation of non-fluorescent HSA-compound ground-state complex. Therefore, the reverse of K gives an estimate of the dissociation constant. By fitting a straight line to the data in Figure 8 forcing a unitary intercept, i.e., assuming a Stern-Volmer-like behaviour, a reasonable correlation coefficient was obtained in all cases.

[7] = target: T1, human serum albumin (HSA); details: for 10-3 K’’b / M-1, HSA binding constant from the variation in amplitude-weighted mean fluorescence lifetime: head prints 10-3 K’’b / M-1, reverse of the dissociation constant
Experimental: as §1
Time-resolved fluorescence measurements were carried out by the single photon counting technique, using a nanoLED N-280 (Horiba Jobin Yvon, Villeneuve D'ascq, France) for the excitation of the protein. […] Ludox® was the scattering agent used to obtain the instrumental response function. The experimental fluorescence intensity decays were analysed with the software TRFA® version 1.4 (Minsk, Belarus). The fluorescence intensity decays, I(t), were analysed by fitting a sum of exponentials, and the decay law was then obtained according to Eq. 1: I(t)= ∑i=1nαi⁡exp(−t/τi) (1) where α i and τ i are the normalized amplitude and lifetime of component i, respectively.
The changes in quantum yield due to processes affecting the fluorescence lifetime were assessed from the amplitude-weighted mean fluorescence lifetime, τ¯ , calculated using Eq. 2: τ¯=∑i=1nαiτi (2)
When used to analyse time-resolved fluorescence data, F is replaced by τ¯ .

[8] = test system: M. tuberculosis H37Rv ATCC27294 (wt); test: microbe, parasite or virus in culture; assay type: cell-based; set-up: MIC (wt): unit not given here; details: for MIC: Mycobacterium tuberculosis, wt Mtb H37Rv, tested from 0.03125 to 128 µM; for MIC (wt): Table S1; for activity against the wild-type strain: in words
[9] = Octanol-water partition coefficient, shake-flask method; assay type: physicochemical; details: pH 7.5, room temperature, preliminary assessment
Experimental: Lipophilicity was evaluated as log Po/w, the octanol-water partition coefficient obtained by the shake-flask method ([Ràfols et al., 2012]; [Martins et al., 2014]), and as log Kp(NaDS/w) the partition coefficient towards sodium dodecyl sulfate (NaDS) anionic micelles obtained by differential spectrophotometry for INH, INH-C10, N33 and N34 in previous works ([Ràfols et al., 2012]; [Martins et al., 2014]; [Santos et al., 2020]). […] For both compounds, samples were dissolved in water-saturated octanol at pH 7.5 (KH2PO4/NaOH) to guarantee negligible ionization. The partition to octanol-saturated aqueous buffer was evaluated, at room temperature, using a volume ratio, ro/w, of 5/30 and 10/30 for N33red and 2.5/40, 5/40 for N34red, after sonication of the solutions and partition on a mechanical tumbler. Equilibrium concentrations were determined by UV-Vis spectrophotometry between 200 and 500 nm after phase separation.

[10] = assay type: physicochemical; details: for stability in aqueous solution: pH 7.4; for fluctuation of the absorption spectra in the UV region: over 3 days, PBS pH 7.4 with 5 % DMSO, N33red at 240 nm, N34red at 269 nm
Experimental: INH-C10, N33 and N34 were obtained as fully described in reference ([Martins et al., 2014]). N33red and N34red were obtained by reduction of the parent Schiff base. Sodium cyanoborohydride (2 equiv.) was added portion wise to a solution of N33 or N34 in hot methanol. The reaction mixture was acidified with methanolic HCl 5M until pH 3; at that point the solution color changed to dark yellow. The reaction was kept under reflux and monitored by TLC until the starting material was consumed. The solvent was then evaporated under reduced pressure, giving an orange-yellow oil. This residue was dissolved in water and basified to pH > 7 by addition of a few drops of NaOH 6 M, to break up the possible cyanoborate adducts. The solution was then washed with brine and extracted several times with dichloromethane, the combined organic extracts were dried with MgSO4 and the solvent evaporated under reduced pressure affording crude yellowish solids. Pure N33red and N34red were obtained after column chromatography with Et2O/MeOH 96.5:3.5 and by recrystallization from CH2Cl2/petroleum ether 2:3, respectively (adapted from ([Borch et al., 1971])). Both N33red and N34red are very stable in aqueous solution (PBS with 5% DMSO) for at least 48 h (Supplementary Figure S5).
Figure S5 – Electronic absorption spectra of N33red and N34red in PBS buffer pH 7.4 with 5 % DMSO
were monitored over 3 days. The fluctuation of the spectra in the UV region of N33red at 240 nm was
less than 1.2% while for N34red at 269 nm was less than 2.5%. The time dependence of the absorbance
uncertainty, thus confirming the stability of both compounds for at least 3 days.

[11] = target: T1, human serum albumin (HSA); set-up: purchased Merck (Sigma-Aldrich) A9511; method as in Ascenzi et al., 2011; details: ref Ascenzi et al., 2011; read-out: K d for HSA previously reported; cited from earlier work
[12] = head prints 10-3 Kbc / M-1, equimolar HSA and warfarin, reverse of the dissociation constant
[13] = HepG2, 72 h incubation, ref Lupien et al., 2018

T1 sequence (P02768 25-609): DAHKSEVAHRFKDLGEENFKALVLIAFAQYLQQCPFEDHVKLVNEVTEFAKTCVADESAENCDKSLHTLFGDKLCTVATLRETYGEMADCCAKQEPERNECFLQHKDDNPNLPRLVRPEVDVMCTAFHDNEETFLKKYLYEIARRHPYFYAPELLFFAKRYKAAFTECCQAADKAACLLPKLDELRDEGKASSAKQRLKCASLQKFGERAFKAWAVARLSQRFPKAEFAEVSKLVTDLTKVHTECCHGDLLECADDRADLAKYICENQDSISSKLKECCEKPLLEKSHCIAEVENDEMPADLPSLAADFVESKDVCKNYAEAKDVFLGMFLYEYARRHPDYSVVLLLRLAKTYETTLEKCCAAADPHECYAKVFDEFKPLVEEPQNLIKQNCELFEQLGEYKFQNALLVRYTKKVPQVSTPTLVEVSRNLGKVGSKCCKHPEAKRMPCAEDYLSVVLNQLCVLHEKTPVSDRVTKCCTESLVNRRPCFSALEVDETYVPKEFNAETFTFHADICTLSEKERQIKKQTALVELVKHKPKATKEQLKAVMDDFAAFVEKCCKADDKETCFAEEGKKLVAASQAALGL
Chain of warfarin binding site of HSA (Sudlow's binding site I) (P02768 25-609): as above

SMILES	IC50 [1] [µM]	Kd [3] [µM]	10-3 Kbc / M-1, binding constant for the warfarin binding site [3, 12]	MIC (wt) ([4]; wt Mtb H37Rv, 2014)	Kd [6]	10-3 K’b / M-1, HSA binding constant from fluorescence intensity variation not accounted for by the decrease in lifetime [6]	Kd [7] [µM]	other results
CN(C)CCCN1c2ccccc2Sc2ccc(Cl)cc21 [Chlorpromazine, reference compound]	13.9	–	–	–	–	–	–	IC50 ([2]; same cell line (HepG2), 24 h incubation, ref Wang et al., 2002): 34.7 µM
COC(=O)c1ccc(/C=N/NC(=O)c2ccncc2)cc1 [Compound N33, methyl (E)-4-((2-isonicotinoylhydrazineylidene)methyl)benzoate]	> 25	54 ± 4	18.5 ± 1.3 10^3 M-1	1.06 ^a µM	160 µM and 200 µM and 120 µM	5.00 ± 2.50 10^3 M-1	80 ± 60	log P o/w ± SD ([5]; ref Martins et al., 2014): 1.32 ± 0.06 ^c; 10-3 K’’b / M-1, HSA binding constant from the variation in amplitude-weighted mean fluorescence lifetime [7]: 12.5 ± 9.4 10^3 M-1
COC(=O)c1ccc(CNNC(=O)c2ccncc2)cc1 [Compound N33red, methyl 4-((2-isonicotinoylhydrazinyl)methyl)benzoate]	> 200	900 ± 300	–	–	600 µM (2×) and 560 µM	1.77 ± 0.65 10^3 M-1	–	MIC [8]: 2 µM (≈ 0.571 µg/mL); MIC (wt) [8]: 0.6; activity against the wild-type strain [8]: active; Kd ([3]; 10-3 Kbc / M-1, binding constant for the warfarin binding site, head prints 10-3 Kbc / M-1, equimolar HSA and warfarin, reverse of the dissociation constant): 746 µM; logP [9]: 1.33 ± 0.04; stability in aqueous solution ([10]; 48 h): at least 48 h; stability in aqueous solution ([10]; 3 days): at least 3 days; fluctuation of the absorption spectra in the UV region [10]: less than 1.2%
O=C(N/N=C/c1ccc(Oc2ccccc2)cc1)c1ccncc1 [Compound N34, (E)-N'-(4-phenoxybenzylidene)isonicotinohydrazide]	> 200	128 ± 5	7.8 ± 0.3 10^3 M-1	0.95 ^a µM	130 µM and 110 µM and 70 µM	–	521	–
O=C(NNCc1ccc(Oc2ccccc2)cc1)c1ccncc1 [Compound N34red, N'-(4-phenoxybenzyl)isonicotinohydrazide]	48.5	340 ± 20	2.99 ± 0.17 10^3 M-1	–	150 µM and 140 µM and 90 µM	–	730	MIC [8]: 1 µM (≈ 0.319 µg/mL); MIC (wt) [8]: 0.3; activity against the wild-type strain [8]: active; logP [9]: 2.6 ± 0.2; stability in aqueous solution ([10]; 48 h): at least 48 h; stability in aqueous solution ([10]; 3 days): at least 3 days; fluctuation of the absorption spectra in the UV region [10]: less than 2.5%
NNC(=O)c1ccncc1 [INH, isonicotinoylhydrazide, reference compound]	> 200	4550 ± 50	0.22 ± 0.01 10^3 M-1	0.29 ^a µM	2.72 mM (2×) and 1.65 mM	0.37 ± 0.01 10^3 M-1	–	effect on HepG2 cell viability ([1]; up to 200 µM, 72 h): did not significantly affect HepG2 cell viability; MIC (wt) ([4]; Table S1, 2014 (per Table 2)): 0.04 g/mL (≈ 292 mM); log P o/w ± SD ([5]; ref Ràfols et al., 2012): −0.85 ± 0.01 ^b; Kd [11]: 390 µM; Kd ([6]; K d for HSA, fluorescence intensity corrected for inner filter effects, steady-state fluorescence, text and Figure S7): ~1000 µM
CCCCCCCCCC(=O)NNC(=O)c1ccncc1 [INH-C10, N′-decanoylisonicotinoylhydrazide]	> 25	400 ± 200	2.43 ± 0.86 10^3 M-1	0.38 ^a µM	46 µM and 50 µM and 70 µM	18.6 ± 5.58 10^3 M-1	120 ± 3	log P o/w ± SD ([5]; ref Ràfols et al., 2012): 3.5 ± 0.2 ^b; 10-3 K’’b / M-1, HSA binding constant from the variation in amplitude-weighted mean fluorescence lifetime [7]: 8.33 ± 0.21 10^3 M-1
CO[C@H]1/C=C/O[C@@]2(C)Oc3c(C)c(O)c4c(O)c(c(/C=N/N5CCN(C)CC5)c(O)c4c3C2=O)NC(=O)/C(C)=C\C=C\[C@H](C)[C@H](O)[C@@H](C)[C@@H](O)[C@@H](C)[C@H](OC(C)=O)[C@@H]1C [Rifampin]	–	–	–	–	–	–	–	IC50 ([2]; ref Vahdati-Mashhadian et al., 2013): 25.5 µM
COc1nc2ccc(Br)cc2cc1[C@@H](c1ccccc1)[C@@](O)(CCN(C)C)c1cccc2ccccc12 [bedaquiline]	–	–	–	–	–	–	–	IC50 [2, 13]: 17.4 µM
C[C@]1(COc2ccc(N3CCC(Oc4ccc(OC(F)(F)F)cc4)CC3)cc2)Cn2cc([N+](=O)[O-])nc2O1 [delamanid]	–	–	–	–	–	–	–	IC50 [2, 13]: 98.9 µM
